The values below come from patent publication US7427469B2, “Method of treating cytomegalovirus with DC-SIGN blockers” (priority 2002, dated 2008).

The target in assay [1] is T1, DC-SIGNR (Homo sapiens, UniProt Q9H2X3).
T1 construct: expressed in transfected cells; host or cells: HEK 293T, transient transfection; cDNA a gift from Dr R. W. Doms
It is filed as binding. The note with it: data not shown.

The subject of assay [2] is CMV. As to the kind of experiment: CMV trans-infection assay: virus-pulsed DC-SIGN+ cells co-cultured with MRC-5 cells. The note with it: MD-DC, DC-SIGN+ THP-1 or DC-SIGN+ HeLa cells pre-incubated before pulse with CMV. It is filed as cell-based, Human Cytomegalovirus. On the procedure: For trans-infection experiments, cells were incubated with viral suspensions (CMV, VZV or HSV-1, MOI=1) for 2 hr, at 37° C. Thereafter, unbound viral particles were removed by extensive washes and cells were co-cultured with sub-confluent MRC-5 or U373 MG cell monolayers. After 24 to 72 hr, infected MRC-5 or U373-MG cells were fixed, permeabilized and stained with specific mAbs directed against IEA- or EA-CMV (mAbs E13 and 2A2, respectively), VZV (mAb 2013) or HSV (mAb CHA-437) (Argen Biosoft, Varilhes, France). When indicated MD-DC or THP-1 (parental or DC-SIGN^+) cells were incubated with EGTA (5 mM), mannan or anti-DC-SIGN (1B10.2.6 mAb) for 30 minutes at 4° C. prior challenge with infectious preparations. Infection by ADGFP strain was assessed by counting GFP-expressing cells at day 3. For long term infectivity experiments DC-SIGN^+ or parental THP-1 cells were incubated with ADGFP (MOI=1) for 4 hr at 37° C. After extensive washes, infected cells were incubated at 37° C. and an aliquot of these cells was added to a sub-confluent MRC-5 cell culture every 2 days during the assay.
MD-DC, THP-1 or HeLa expressing DC-SIGN were incubated with a mutant CMV strain encoding a GFP (ADGFP) (Borst et al., 2001). […]
The capacity of DC-SIGN to enhance infectiveness of CMV was assessed. […]

Assay [3] concerns the target T2, DC-SIGN (Homo sapiens, UniProt Q9NNX6).
T2 sequence (Q9NNX6 1-404): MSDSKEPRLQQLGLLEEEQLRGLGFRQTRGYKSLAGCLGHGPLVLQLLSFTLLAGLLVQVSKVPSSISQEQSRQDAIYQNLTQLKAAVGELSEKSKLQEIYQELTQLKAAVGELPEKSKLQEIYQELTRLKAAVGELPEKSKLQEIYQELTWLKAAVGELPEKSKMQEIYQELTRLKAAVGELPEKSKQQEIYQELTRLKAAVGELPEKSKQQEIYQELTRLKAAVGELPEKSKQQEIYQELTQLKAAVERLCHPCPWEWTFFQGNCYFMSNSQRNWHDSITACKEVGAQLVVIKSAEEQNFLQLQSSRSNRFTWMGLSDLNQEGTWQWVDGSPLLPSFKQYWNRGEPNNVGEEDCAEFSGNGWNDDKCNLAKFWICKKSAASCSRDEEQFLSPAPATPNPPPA
It is filed as binding. Also noted: expressed in transfected cells. The note with it: data not shown.

Assay [4] addresses T2, DC-SIGN. As to the kind of experiment: HIV-1 gp120 binding competition assay on DC-SIGN+ THP-1 cells. Also noted: expressed in transfected cells; host or cells: THP-1 (gift of Dr. D. R. Littman; Kwon et al., 2002). The note with it: DC-SIGN+ THP-1 cells pre-treated with competitors (20 μg/ml).
Method: DC-SIGN^+ THP-1 cells were washed two times, resuspended in ice-cold binding buffer (1 mM CaCl2, 2 mM MgCl2 and 0.1% Bovine Serum Albumin in PBS) at 10^6 cells/mL and pre-treated or not for 15 minutes with competitors (20 μg/ml). Thereafter, recombinant biotinylated CXCR4-tropic (MN isolate) HIV-1 gp120 (2 μg/ml; Immunodiagnostics Inc., Woburg, Mass.) was added for 30 minutes at 4° C.
In this assay we pre-incubated DC-SIGN^+ THP-1 cells with purified HIV-1 gp120, CMV gB, HSV-1 gB, VZV gB, HSV-1 gD or VZV gE. Following exposure to each single envelope glycoprotein, cells were incubated with biotinylated HIV-1 gp120, which binding to DC-SIGN^+ THP-1 cells was evidenced by immunostaining and FACS analysis.
Assay [5] has as its target T2, DC-SIGN. Description: Binding of CMV virions to DC-SIGN-expressing cells (flow cytometry, anti-CMV gB mAb). Type of assay: cell-based. The arrangement: expressed in transfected cells; host or cells: THP-1 (gift of Dr. D. R. Littman; Kwon et al., 2002). The note with it: pre-incubation of cells with the substance. On the procedure:
The capacity of CMV to bind DC-SIGN was investigated. Parental and DC-SIGN^+ THP-1 cells, or immature monocyte-derived DC (MD-DC) were incubated on ice with increasing concentrations of CMV and the presence of cell-bound virions was quantified by flow cytometry using a mAb directed against the CMV gB.
(In flow cytometry, cells or beads pass a laser one at a time.)

T1 sequence (Q9H2X3 whole entry): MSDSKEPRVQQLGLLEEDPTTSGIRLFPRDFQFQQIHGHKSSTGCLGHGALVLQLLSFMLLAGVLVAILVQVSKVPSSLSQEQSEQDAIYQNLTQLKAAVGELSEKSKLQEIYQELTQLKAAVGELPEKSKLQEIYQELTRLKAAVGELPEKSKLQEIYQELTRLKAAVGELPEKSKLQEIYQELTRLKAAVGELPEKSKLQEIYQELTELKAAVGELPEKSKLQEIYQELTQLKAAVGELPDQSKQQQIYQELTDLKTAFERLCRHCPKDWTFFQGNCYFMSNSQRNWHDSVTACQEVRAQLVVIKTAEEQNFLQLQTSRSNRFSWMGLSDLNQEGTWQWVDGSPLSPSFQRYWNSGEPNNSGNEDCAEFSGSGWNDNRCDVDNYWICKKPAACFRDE

As to `O=C(O)CN(CCOCCOCCN(CC(=O)O)CC(=O)O)CC(=O)O` [EGTA], in assay [1], the “Binding of HIV-1 gp120 and CMV gB to HEK 293T cells expressing DC-SIGNR” value is on record as “blocked”. The “Trans-infection of MRC-5 cells / transmission of CMV from DC-SIGN+ cells to MRC-5 cells” value in assay [2] is given as “prevented”. For the same compound, the “Binding of HIV-1 gp120 and CMV gB to HEK 293T cells expressing DC-SIGN” value in assay [3] is listed as “blocked”.
As to mannan, the “Binding of biotinylated HIV-1 gp120 on DC-SIGN (competition)” value in assay [4] is reported as “competitive effect”. Moreover, the “Trans-infection of MRC-5 cells / transmission of CMV from DC-SIGN+ cells to MRC-5 cells” value in assay [2] is “prevented”. For the same compound, the “CMV virion attachment to cells” value in assay [5] is “Abrogation”.
